In ChEMBL document CHEMBL2074382, “Improvement of L-dopa absorption by dipeptidyl derivation, utilizing peptide transporter PepT1” (J Pharm Sci, 1998):
Non-standard residues stand in square brackets, D forms with d. Residues, ends and D or L forms follow the SMILES beside them. Dopa = N[C@@H](Cc1ccc(O)c(O)c1)C(=O)O

Legend:
[1] = target: T1, Solute carrier family 15 member 1 (Homo sapiens) (UniProt P46059); test: TP_TRANSPORTER: uptake in Xenopus laevis oocytes; type: functional, cell-based; settings: Oocyte
T1 sequence (whole entry): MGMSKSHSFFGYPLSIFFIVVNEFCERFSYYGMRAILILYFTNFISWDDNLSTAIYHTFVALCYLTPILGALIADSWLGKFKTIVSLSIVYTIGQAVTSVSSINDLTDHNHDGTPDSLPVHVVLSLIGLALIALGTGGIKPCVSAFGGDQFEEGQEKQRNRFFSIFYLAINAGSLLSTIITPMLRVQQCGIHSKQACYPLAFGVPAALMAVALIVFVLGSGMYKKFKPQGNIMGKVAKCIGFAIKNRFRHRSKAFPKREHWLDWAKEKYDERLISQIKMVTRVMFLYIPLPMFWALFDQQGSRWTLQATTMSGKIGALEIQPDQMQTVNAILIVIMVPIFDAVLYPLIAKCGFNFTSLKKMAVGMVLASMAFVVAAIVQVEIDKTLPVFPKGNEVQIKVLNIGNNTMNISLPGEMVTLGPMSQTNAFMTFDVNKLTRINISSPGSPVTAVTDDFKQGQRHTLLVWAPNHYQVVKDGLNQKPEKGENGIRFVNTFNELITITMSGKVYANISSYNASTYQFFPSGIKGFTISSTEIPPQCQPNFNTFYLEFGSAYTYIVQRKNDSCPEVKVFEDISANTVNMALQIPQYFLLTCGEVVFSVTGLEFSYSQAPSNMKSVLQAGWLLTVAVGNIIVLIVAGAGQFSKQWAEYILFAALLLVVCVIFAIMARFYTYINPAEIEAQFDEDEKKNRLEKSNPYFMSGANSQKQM

[2] = target: T1, Solute carrier family 15 member 1 (Homo sapiens); test: TP_TRANSPORTER: inhibition of Gly-Sar uptake (Gly-Sar: 20 uM, L-dopa-L-Phe: 1000 uM) in Caco-2 cells; type: functional, cell-based

N[C@@H](Cc1ccccc1)C(=O)N1CCC[C@@H]1C(=O)O
Activity [1]: substrate [+]

N[C@@H](Cc1ccccc1)C(=O)N1CCC[C@H]1C(=O)O
Activity [1]: substrate [+]

NC(=O)[C@H](Cc1ccccc1)NC(=O)[C@@H](N)Cc1ccccc1 (H-Phe-Phe-NH2)
Activity [1]: substrate [+]

N[C@@H](Cc1ccc(O)c(O)c1)C(=O)N[C@@H](Cc1ccccc1)C(=O)O (H-[Dopa]-Phe-OH)
Activity [1]: substrate [+] | Activity [2]: inhibitor [20% (at a rough estimate) of control]
